Results reported in the NIST ThermoML archive (doi:10.1021/je034062r).

Assay: xn = mol fraction of the nth substance listed
Conditions: for mass density: Liquid; for surface tension liquid-gas: Pendant drop shape

C1CCCCC1 [cyclohexane] + CCCCCCC
Conditions | mass density [kg/m3] | surface tension liquid-gas [mN/m]
283.15 K, x1 = 0.1022 | 699.2 | –
283.15 K, x1 = 0.2022 | 706.5 | –
283.15 K, x1 = 0.3078 | 714.6 | –
283.15 K, x1 = 0.401 | 722.3 | –
283.15 K, x1 = 0.4984 | 730.8 | –
283.15 K, x1 = 0.7003 | 750.8 | –
283.15 K, x1 = 0.8054 | 761.5 | –
283.15 K, x1 = 0.898 | 774.2 | –
283.15 K, x1 = 1 | 787.9 | –
287.81 K, x1 = 0.1022 | – | 20.91
287.81 K, x1 = 0.2022 | – | 21.31
287.81 K, x1 = 0.3078 | – | 21.65
287.81 K, x1 = 0.401 | – | 21.88
287.81 K, x1 = 0.4984 | – | 22.27
287.81 K, x1 = 0.6002 | – | 22.62
287.81 K, x1 = 0.7003 | – | 23.08
287.81 K, x1 = 0.8054 | – | 23.84
287.81 K, x1 = 0.898 | – | 24.39
287.81 K, x1 = 1 | – | 25.34
288.15 K, x1 = 0.1022 | 695 | –
288.15 K, x1 = 0.2022 | 702.2 | –
288.15 K, x1 = 0.3078 | 710.4 | –
288.15 K, x1 = 0.401 | 717.9 | –
288.15 K, x1 = 0.4984 | 726.5 | –
288.15 K, x1 = 0.7003 | 746.4 | –
288.15 K, x1 = 0.8054 | 758 | –
288.15 K, x1 = 0.898 | 769.7 | –
288.15 K, x1 = 1 | 783.2 | –
293.15 K, x1 = 0.1022 | 690.8 | –
293.15 K, x1 = 0.2022 | 698 | –
293.15 K, x1 = 0.3078 | 706.1 | –
293.15 K, x1 = 0.401 | 713.6 | –
293.15 K, x1 = 0.4984 | 722.2 | –
293.15 K, x1 = 0.7003 | 742 | –
293.15 K, x1 = 0.8054 | 753.5 | –
293.15 K, x1 = 0.898 | 765.1 | –
293.15 K, x1 = 1 | 778.6 | –
297.82 K, x1 = 0.1022 | – | 19.95
297.82 K, x1 = 0.2022 | – | 20.25
297.82 K, x1 = 0.3078 | – | 20.52
297.82 K, x1 = 0.401 | – | 20.9
297.82 K, x1 = 0.4984 | – | 21.21
297.82 K, x1 = 0.6002 | – | 21.57
297.82 K, x1 = 0.7003 | – | 22.14
297.82 K, x1 = 0.8054 | – | 22.72
297.82 K, x1 = 0.898 | – | 23.32
297.82 K, x1 = 1 | – | 24.2
298.15 K, x1 = 0.1022 | 686.5 | –
298.15 K, x1 = 0.2022 | 693.6 | –
298.15 K, x1 = 0.3078 | 701.7 | –
298.15 K, x1 = 0.401 | 709.2 | –
298.15 K, x1 = 0.4984 | 717.8 | –
298.15 K, x1 = 0.6002 | 725.6 | –
298.15 K, x1 = 0.7003 | 737.5 | –
298.15 K, x1 = 0.8054 | 749 | –
298.15 K, x1 = 0.898 | 760.5 | –
298.15 K, x1 = 1 | 773.9 | –
303.15 K, x1 = 0.1022 | 682.2 | –
303.15 K, x1 = 0.2022 | 689.3 | –
303.15 K, x1 = 0.3078 | 697.4 | –
303.15 K, x1 = 0.401 | 704.8 | –
303.15 K, x1 = 0.4984 | 713.3 | –
303.15 K, x1 = 0.6002 | 722 | –
303.15 K, x1 = 0.7003 | 733 | –
303.15 K, x1 = 0.8054 | 744.4 | –
303.15 K, x1 = 0.898 | 755.8 | –
303.15 K, x1 = 1 | 769.2 | –
307.86 K, x1 = 0.1022 | – | 18.91
307.86 K, x1 = 0.2022 | – | 19.25
307.86 K, x1 = 0.3078 | – | 19.58
307.86 K, x1 = 0.401 | – | 19.87
307.86 K, x1 = 0.4984 | – | 20.19
307.86 K, x1 = 0.6002 | – | 20.53
307.86 K, x1 = 0.7003 | – | 21.06
307.86 K, x1 = 0.8054 | – | 21.64
307.86 K, x1 = 0.898 | – | 22.18
307.86 K, x1 = 1 | – | 23.02
308.15 K, x1 = 0.1022 | 677.8 | –
308.15 K, x1 = 0.2022 | 685 | –
308.15 K, x1 = 0.3078 | 693 | –
308.15 K, x1 = 0.401 | 700.4 | –
308.15 K, x1 = 0.4984 | 708.9 | –
308.15 K, x1 = 0.6002 | 718.1 | –
308.15 K, x1 = 0.7003 | 728.4 | –
308.15 K, x1 = 0.8054 | 739.8 | –
308.15 K, x1 = 0.898 | 751.2 | –
308.15 K, x1 = 1 | 764.4 | –
313.15 K, x1 = 0.1022 | 673.5 | –
313.15 K, x1 = 0.2022 | 680.6 | –
313.15 K, x1 = 0.3078 | 688.6 | –
313.15 K, x1 = 0.401 | 696 | –
313.15 K, x1 = 0.4984 | 704.4 | –
313.15 K, x1 = 0.6002 | 713.8 | –
313.15 K, x1 = 0.7003 | 723.9 | –
313.15 K, x1 = 0.8054 | 735.2 | –
313.15 K, x1 = 0.898 | 746.5 | –
313.15 K, x1 = 1 | 759.6 | –
317.86 K, x1 = 0.1022 | – | 17.91
317.86 K, x1 = 0.2022 | – | 18.36
317.86 K, x1 = 0.3078 | – | 18.53
317.86 K, x1 = 0.401 | – | 18.82
317.86 K, x1 = 0.4984 | – | 19.16
317.86 K, x1 = 0.6002 | – | 19.55
317.86 K, x1 = 0.7003 | – | 20.01
317.86 K, x1 = 0.8054 | – | 20.56
317.86 K, x1 = 0.898 | – | 21.07
317.86 K, x1 = 1 | – | 21.84
318.15 K, x1 = 0.1022 | 669 | –
318.15 K, x1 = 0.2022 | 676.1 | –
318.15 K, x1 = 0.3078 | 684.1 | –
318.15 K, x1 = 0.401 | 691.5 | –
318.15 K, x1 = 0.4984 | 699.9 | –
318.15 K, x1 = 0.6002 | 709.3 | –
318.15 K, x1 = 0.7003 | 719.3 | –
318.15 K, x1 = 0.8054 | 730.6 | –
318.15 K, x1 = 0.898 | 741.8 | –
318.15 K, x1 = 1 | 754.8 | –
323.15 K, x1 = 0.1022 | 664.6 | –
323.15 K, x1 = 0.2022 | 671.7 | –
323.15 K, x1 = 0.3078 | 679.6 | –
323.15 K, x1 = 0.401 | 686.9 | –
323.15 K, x1 = 0.4984 | 695.4 | –
323.15 K, x1 = 0.6002 | 704.7 | –
323.15 K, x1 = 0.7003 | 714.7 | –
323.15 K, x1 = 0.8054 | 725.9 | –
323.15 K, x1 = 0.898 | 737.1 | –
323.15 K, x1 = 1 | 750 | –
327.88 K, x1 = 0.1022 | – | 16.83
327.88 K, x1 = 0.2022 | – | 17.05
327.88 K, x1 = 0.3078 | – | 17.41
327.88 K, x1 = 0.401 | – | 17.52
327.88 K, x1 = 0.4984 | – | 17.99
327.88 K, x1 = 0.6002 | – | 18.44
327.88 K, x1 = 0.7003 | – | 18.95
327.88 K, x1 = 0.8054 | – | 19.48
327.88 K, x1 = 0.898 | – | 19.98
327.88 K, x1 = 1 | – | 20.71
328.15 K, x1 = 0.1022 | 660.1 | –
328.15 K, x1 = 0.2022 | 667.2 | –
328.15 K, x1 = 0.3078 | 675.1 | –
328.15 K, x1 = 0.401 | 682.4 | –
328.15 K, x1 = 0.4984 | 691 | –
328.15 K, x1 = 0.6002 | 700.1 | –
328.15 K, x1 = 0.7003 | 710 | –
328.15 K, x1 = 0.8054 | 721.2 | –
328.15 K, x1 = 0.898 | 732.3 | –
328.15 K, x1 = 1 | 745.2 | –
333.15 K, x1 = 0.1022 | 655.5 | –
333.15 K, x1 = 0.3078 | 670.5 | –
333.15 K, x1 = 0.401 | 677.8 | –
333.15 K, x1 = 0.4984 | 686.2 | –
333.15 K, x1 = 0.6002 | 695.5 | –
333.15 K, x1 = 0.7003 | 705.3 | –
333.15 K, x1 = 0.8054 | 716.5 | –
333.15 K, x1 = 0.898 | 727.5 | –
333.15 K, x1 = 1 | 740.3 | –
